Data from article PMC2649372 (Biochemistry, 2008).
Residue numbers refer to the chain shown, from its start. Where “and” joins values, the source holds several entries; their conditions need not be identical. Identical values can stand only once. Marks after values point to notes of the source that are not given here.

Experiments:
[1] = target: T1, N128D mutant 5-HT3 receptor (mouse 5-HT3A subunit) (Mus musculus, UniProt P23979, N128D); experiment: Agonist-induced currents, voltage clamp electrophysiology in Xenopus oocytes; assay type: cell-based
T1 sequence (P23979 24-483 isoform P23979-2 N128D limits assumed): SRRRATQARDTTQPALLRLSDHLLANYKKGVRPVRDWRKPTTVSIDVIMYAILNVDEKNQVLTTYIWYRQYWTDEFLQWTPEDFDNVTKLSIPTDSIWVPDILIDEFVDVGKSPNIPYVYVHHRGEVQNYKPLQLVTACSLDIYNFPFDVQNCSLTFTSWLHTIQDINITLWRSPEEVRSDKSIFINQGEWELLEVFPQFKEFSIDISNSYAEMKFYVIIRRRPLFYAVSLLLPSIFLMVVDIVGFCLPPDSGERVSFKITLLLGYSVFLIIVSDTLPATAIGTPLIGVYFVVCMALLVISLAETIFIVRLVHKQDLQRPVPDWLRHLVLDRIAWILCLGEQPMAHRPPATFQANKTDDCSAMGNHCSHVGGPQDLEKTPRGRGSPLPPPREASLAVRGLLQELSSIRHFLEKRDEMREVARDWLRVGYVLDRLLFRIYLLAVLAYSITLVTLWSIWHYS

[2] = target: T2, WT 5-HT3 receptor (mouse 5-HT3A subunit) (Mus musculus, UniProt P23979); experiment: as above; assay type: cell-based; conditions: for nH (Hill coefficient): WT; for EC50: oocytes, holding potential −60 mV
T2 sequence (P23979 24-483 isoform P23979-2 limits assumed): T1 sequence (P23979 24-483 isoform P23979-2 N128D limits assumed) with D105N

[3] = target: T3, N128Q mutant 5-HT3 receptor (mouse 5-HT3A subunit) (Mus musculus, UniProt P23979, N128Q); experiment: as above; assay type: cell-based; conditions: for nH (Hill coefficient): N128Q
T3 sequence (P23979 24-483 isoform P23979-2 N128Q limits assumed): T1 sequence (P23979 24-483 isoform P23979-2 N128D limits assumed) with D105Q

[4] = target: T4, E129N mutant 5-HT3 receptor (mouse 5-HT3A subunit) (Mus musculus, UniProt P23979, E129N); experiment: as above; assay type: cell-based
T4 sequence (P23979 24-483 isoform P23979-2 E129N limits assumed): T1 sequence (P23979 24-483 isoform P23979-2 N128D limits assumed) with D105N, E106N

[5] = target: T5, E129D mutant 5-HT3 receptor (mouse 5-HT3A subunit) (Mus musculus, UniProt P23979, E129D); experiment: as above; assay type: cell-based
T5 sequence (P23979 24-483 isoform P23979-2 E129D limits assumed): T1 sequence (P23979 24-483 isoform P23979-2 N128D limits assumed) with D105N, E106D

[6] = target: T6, N128A mutant 5-HT3 receptor (mouse 5-HT3A subunit) (Mus musculus, UniProt P23979, N128A); experiment: as above; assay type: cell-based; conditions: for nH (Hill coefficient): N128A
T6 sequence (P23979 24-483 isoform P23979-2 N128A limits assumed): T1 sequence (P23979 24-483 isoform P23979-2 N128D limits assumed) with D105A

[7] = target: T7, N128E mutant 5-HT3 receptor (mouse 5-HT3A subunit) (Mus musculus, UniProt P23979, N128E); experiment: as above; assay type: cell-based; conditions: for nH (Hill coefficient): N128E
T7 sequence (P23979 24-483 isoform P23979-2 N128E limits assumed): T1 sequence (P23979 24-483 isoform P23979-2 N128D limits assumed) with D105E

[8] = target: E129K mutant 5-HT3 receptor (mouse 5-HT3A subunit) (Mus musculus, UniProt P23979, E129K); experiment: Single-point [3H]granisetron binding to solubilized oocyte preparations; conditions: 0.5 nM [3H]granisetron
Sequence of E129K mutant 5-HT3 receptor (mouse 5-HT3A subunit) (P23979 24-483 isoform P23979-2 E129K limits assumed): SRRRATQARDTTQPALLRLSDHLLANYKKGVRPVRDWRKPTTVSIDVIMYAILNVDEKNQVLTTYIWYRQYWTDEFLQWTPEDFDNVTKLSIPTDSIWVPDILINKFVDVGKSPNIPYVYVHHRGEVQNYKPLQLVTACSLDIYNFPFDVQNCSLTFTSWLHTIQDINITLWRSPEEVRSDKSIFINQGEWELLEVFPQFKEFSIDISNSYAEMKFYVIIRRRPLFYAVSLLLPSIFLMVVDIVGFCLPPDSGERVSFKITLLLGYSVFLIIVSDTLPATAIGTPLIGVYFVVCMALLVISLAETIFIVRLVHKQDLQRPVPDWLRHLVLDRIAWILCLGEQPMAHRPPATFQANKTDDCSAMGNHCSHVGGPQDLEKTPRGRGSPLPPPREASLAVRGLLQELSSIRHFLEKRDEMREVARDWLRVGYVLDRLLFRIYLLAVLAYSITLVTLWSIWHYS

[9] = system: Asn128 mutant 5-HT3 receptors; conditions: Asn128 mutant receptors in HEK cells; cited from earlier work
[10] = target: E129A mutant 5-HT3 receptor (mouse 5-HT3A subunit) (Mus musculus, UniProt P23979, E129A); experiment: Single-point [3H]granisetron binding to solubilized oocyte preparations; conditions: 0.5 nM [3H]granisetron
Sequence of E129A mutant 5-HT3 receptor (mouse 5-HT3A subunit) (P23979 24-489 E129A): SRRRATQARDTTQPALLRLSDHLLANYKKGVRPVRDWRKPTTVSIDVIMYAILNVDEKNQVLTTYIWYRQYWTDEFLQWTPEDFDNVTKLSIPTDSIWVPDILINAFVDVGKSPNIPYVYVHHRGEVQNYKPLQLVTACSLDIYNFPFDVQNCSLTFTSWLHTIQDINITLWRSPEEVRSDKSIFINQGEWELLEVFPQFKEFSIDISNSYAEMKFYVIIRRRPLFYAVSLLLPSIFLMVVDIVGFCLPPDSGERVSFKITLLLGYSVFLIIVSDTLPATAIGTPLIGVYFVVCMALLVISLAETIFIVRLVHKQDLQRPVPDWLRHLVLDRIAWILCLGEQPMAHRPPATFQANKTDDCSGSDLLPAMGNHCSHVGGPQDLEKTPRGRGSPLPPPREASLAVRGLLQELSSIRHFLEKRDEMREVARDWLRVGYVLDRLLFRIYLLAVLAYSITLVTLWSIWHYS

[11] = target: E129G mutant 5-HT3 receptor (mouse 5-HT3A subunit) (Mus musculus, UniProt P23979, E129G); experiment: as above; conditions: 0.5 nM [3H]granisetron
Sequence of E129G mutant 5-HT3 receptor (mouse 5-HT3A subunit) (P23979 24-483 isoform P23979-2 E129G limits assumed): as the sequence (P23979 24-483 isoform P23979-2 E129K limits assumed) above, with K106G counted along it

[12] = system: Glu129 mutant 5-HT3 receptors; conditions: any Glu129 mutant receptor in HEK cells; concentrations up to 20 nM; cited from earlier work
[13] = target: T4, E129N mutant 5-HT3 receptor (mouse 5-HT3A subunit); experiment: Granisetron inhibition of 5-HT-induced responses in oocytes; assay type: cell-based; conditions: 100 nM granisetron, EC50 concentration of 5-HT
[14] = target: T5, E129D mutant 5-HT3 receptor (mouse 5-HT3A subunit); experiment: as above; assay type: cell-based; conditions: EC50 concentration of 5-HT

**Q.** Which results are given for `NCCc1c[nH]c2ccc(F)cc12` [5-FT, 5-fluorotryptamine]?
**A.** EC50 [1]: 17.8 µM; nH (Hill coefficient) ([1]; N128D): 2.61 ± 0.28; nH (Hill coefficient) [2]: 2.71 ± 0.24; EC50 ([2]; pEC50, WT): 17.8 µM; EC50 [3]: 94 µM; nH (Hill coefficient) [3]: 2.38 ± 0.58; EC50 [4]: 11.7 µM; nH (Hill coefficient) ([4]; E129N): 1.25 ± 0.13 ^b; EC50 [5]: 8.3 µM; nH (Hill coefficient) ([5]; E129D): 1.95 ± 0.30; EC50 [6]: 10 µM; nH (Hill coefficient) [6]: 2.34 ± 0.75; EC50 [7]: 13.8 µM; nH (Hill coefficient) [7]: 1.97 ± 0.18

**Q.** What does the source list for `CN1C2CCCC1CC(NC(=O)c1nn(C)c3ccccc13)C2` (stereo not shown) [[^3H]granisetron]?
**A.** specific radioligand binding [8]: No specific radioligand binding; binding affinity vs WT [9]: no significant differences; specific radioligand binding [10]: No specific radioligand binding; specific radioligand binding [11]: No specific radioligand binding; specific binding [12]: no specific binding

**Q.** With `CN1C2CCCC1CC(NC(=O)c1nn(C)c3ccccc13)C2` (stereo not shown) [granisetron] as the compound, how does the “block of the response to 5-HT” value [13] read?
**A.** The value was “did not block”.

**Q.** And the “block of the response to 5-HT” value ([14]; 10 nM granisetron)?
**A.** Its value is 80 ± 5% and ~80%.

**Q.** What about the “block of the response to 5-HT” value ([14]; 100 nM granisetron) of the same compound?
**A.** Its value is 96 ± 3%.

**Q.** What does the source list for `NCCc1c[nH]c2ccccc12` [tryptamine]?
**A.** EC50 ([2]; EC50, WT): 120 µM; nH (Hill coefficient) [2]: 2.86 ± 0.14; EC50 ([2]; pEC50, WT): 117 µM; EC50 [3]: 240 µM; nH (Hill coefficient) [3]: 3.10 ± 0.39; EC50 [6]: 91 µM; nH (Hill coefficient) [6]: 2.90 ± 0.68; EC50 [7]: 59 µM; nH (Hill coefficient) [7]: 2.90 ± 0.53
